How the values were obtained:
[1] = Solubility (appearance / physicochemical properties); settings: for Solubility in organic solvents: medium-polar and polar organic solvents
[2] = Stability in solution (appearance / physicochemical properties)
[3] = biological target: T1, amyloid precursor protein - FE65 interaction (Homo sapiens, UniProt O00213); test: Test for the ability to inhibit the APP-FE65 interaction (energy transfer, Eu-cryptate/XL665); type: binding; settings: for IC50: biotin-cAPP / GST-PTB2, emission at 665 nm and 615 nm, read-out: Inhibition of the amyloid precursor protein - FE65 interaction, IC50
T1 construct: 1 μL of GST-PTB2 (20 nM in Buffer A) was added
T1 sequence (O00213 542-699 limits assumed): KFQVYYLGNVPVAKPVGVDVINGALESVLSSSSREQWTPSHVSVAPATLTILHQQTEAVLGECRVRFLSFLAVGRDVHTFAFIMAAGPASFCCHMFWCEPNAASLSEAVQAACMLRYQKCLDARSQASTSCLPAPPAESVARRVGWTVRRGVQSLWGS
Procedure: Test for the Ability to Inhibit the APP-FE65 Interaction
1 μl of the solution to be tested was pipetted, together with 30 μM 32 mer cAPP in Buffer A, into a microtiter plate. 1 μl of biotin-cAPP (10 nM, dissolved in Buffer A) was then added. After incubating for 15 minutes, 1 μL of GST-PTB2 (20 nM in Buffer A) was added and the plate was incubated once again for 15 minutes. 4 μl of antibody mixture (Streptavidin labeled with Eu-cryptate, […] per well; monoclonal anti-GST antibody labeled with XL665, […] in Buffer B) were then added. After 30 minutes at room temperature, the emission signal of the energy transfer, and the europium signal, were measured at 665 nm and 615 nm in a Tecan ultraphotometer after the test solution had been activated with light at a wavelength of 340 nm.
The IC50 values listed in Table 1 were found for the inhibition of the amyloid precursor protein—FE65 interaction.

| SMILES | Solubility in organic solvents [1] | Solubility in water [1] | Stability in neutral and mildly acidic medium [2] | Stability in strongly acid and strongly alkaline solutions [2] | Inhibition of the APP-FE65 interaction (in words) [3] | IC50 [3] |
| --- | --- | --- | --- | --- | --- | --- |
| C/C=C/C=C/C1C(C)=CC2CC(C)CCC2C1(C)/C(O)=C1\C(=O)NC(C(C)O)C1=O (centres unmarked) [Coniosetin, coniosetin] | soluble | not particularly soluble | Stable | unstable | inhibits the APP-FE65 reaction | 28 µM |
| CC(=O)NCC(=O)N/C(=C\SC/C=C(\C)CC/C=C(\C)CCC=C(C)C)C(=O)O [Coniosulfide A] | soluble | not particularly soluble | Stable | unstable |  | 2.3 µM |
| CC(=O)NCC(=O)N/C(=C\SC/C=C(\C)CC/C=C(\C)CCC(C)=C(C)C)C(=O)O [Coniosulfide B] | soluble | not particularly soluble | Stable | unstable |  | 2.6 µM |
| CC(=O)NCC(=O)NCC(=O)N/C(=C\SC/C=C(\C)CC/C=C(\C)CCC=C(C)C)C(=O)O [Coniosulfide C] | soluble | not particularly soluble | Stable | unstable |  | 3.8 µM |
| CC(=O)NCC(=O)NCC(=O)N/C(=C\SC/C=C(\C)CC/C=C(\C)CCC(C)=C(C)C)C(=O)O [Coniosulfide D] | soluble | not particularly soluble | Stable | unstable |  | 3.8 µM |
